In patent US10617679B2, “Deuterated compounds and medical uses thereof” (JINGLUWEIDAI INFORMATION CONSULTING SERVICE (BEIJING) CO. …, priority 2016, dated 2020):

Experiments:
heart rate in rats = experiment: Effects on heart rate in rats; assay type: in vivo, SD rats
Protocol: (§1) SD rats (male, weight 160-180 g) were fasted for 12 hours before administration but had free access to drinking water. The rats were randomly divided into groups. They were anesthetized with an intraperitoneal injection of 50-60 mg/kg dose of sodium pentobarbital. Each rat was fixed on the back on the surgical table. The skin was cut from the center of the neck, and an incision of about 2.5 cm was made. The subcutaneous tissue and the median muscle were separated; the trachea was fully exposed; and the endotracheal intubation was performed. The subcutaneous tissue was separated from front to back on the right side; the right common carotid artery, the vagus nerve and the sympathetic nerve were exposed; and the carotid artery cannulation was performed. Finally, the endotracheal tube and the carotid artery cannula were respectively connected to a respiration transducer and a blood pressure transducer, and then connected to a multifunctional physiological recorder. At 30 minutes after surgery, the rats were intragastrically administrated. Heart rate and blood pressure were measured at different time points after administration.

blood pressure in rats = experiment: Effects on blood pressure in rats; assay type: in vivo, SD rats
Protocol: as §1

Wistar rats = experiment: Evaluation of subacute toxicity (14 days, intragastric); assay type: in vivo; conditions: 40 mg/kg intragastric once a day for 14 days
Protocol: Male Wistar rats were randomly divided into groups with 10 rats in each group and weighed. A certain concentration of a test sample was ground and suspended in a 0.5% sodium carboxymethyl cellulose solution. The sodium carboxymethyl cellulose suspension containing 40 mg/kg of the test compound and a blank sodium carboxymethyl cellulose suspension as a control were intragastrically administered, once a day for 14 consecutive days. After the last administration, the rats were fasted but had free access to drinking water for 12 hours, and then anesthetized. Their blood samples were obtained from the abdominal aortas. According to SOPB093 “Standard Operating Procedures for Serum Preparation” in National Beijing Center for Drug Safety Evaluation and Research, serum was prepared for the determination of blood biochemical and immunological indicators; according to SOPB032 “Preparation of vacuum tubes with EDTA anticoagulation”, EDTA anticoagulation was prepared for the general blood routine tests.

[1] = test system: oxycodone-induced place preference in rats; experiment: Inhibition of oxycodone-induced place preference in rats; assay type: in vivo, SD rats; conditions: day 10, within 15 minutes
Protocol: SD rats (male, weight 160-180 g) were placed in conditioned place preference (CPP) training boxes, where the partition door between the boxes was open. Time the rats spent in each of the boxes was recorded within 15 min in order to determine the natural tendency of the rats. The rats were then randomly divided into groups with 10 rats in each group according to the amount of time spent in the white box. The white box was a drug box, and the black box was a box with the absence of the drug. After intragastric administration with a test compound for 40 minutes, the rats were injected subcutaneously with oxycodone (2.5 mg/kg, s.c.) or saline, and immediately placed in the white box or the black box to be trained for 45 minutes, once a day for 9 consecutive days. On the 10th day, the rats were placed in the training boxes with the partition door open. The time the rats spent in the white box was recorded within 15 minutes to evaluate effects on place preference in the rats.

rat formalin model = experiment: Analgesic effects of intragastric administration in a rat formalin model; assay type: in vivo, SD rats; conditions: mean ± SD; for Reaction time for phase I: licking time 0-5 min after formalin; for Reaction time for Phase II: licking time 15-30 min after formalin
Protocol: SD rats (male, weight 160-180 g) were randomly divided into groups with 6 rats in each group. After the rats were intragastrically administered different doses separately, they were placed in PVC observation boxes for habituation. After 30 min, the rats were injected subcutaneously with 20 μL of 2.7% formalin solution into the plantar surface of the left hind paws, and quickly put back in the PVC observation boxes for observation. The length of time the rats spent licking the injected-formalin paws at the early response (0-5 min, phase I) and the late response (15-30 min, Phase II) was recorded, and the analgesic activities of the test compounds were evaluated according to the length of time the rats spent licking during the period of observation. The experimental data were expressed as mean±standard deviation. The shorter the licking time, the better the analgesic effect of the compound.

[2] = test system: rat chronic sciatic nerve compression neuralgia model; experiment: Analgesic effects of intragastric administration in a rat chronic sciatic nerve compression neuralgia model; assay type: in vivo, SD rats; conditions: pain threshold 1 hour after administration
Protocol: SD rats (male, weight 160-180 g) were anesthetized using sodium pentobarbital (40 mg/kg), of which the sciatic nerves were separated in the middle segment of the right hind limbs. In the anterior segment of the sciatic nerve to be bifurcated, the sciatic nerve was separated from the surrounding tissue using a sterile glass hook. Four rings were loosely ligated with sterile chrome gut (No. 4, 0.15 mm in diameter) by an interval of 1 to 2 mm. Topically sprinkled with penicillin powder. The muscle tissue and skin were sutured. The rats were placed in a cage with cork dust. In the sham surgery group, the sciatic nerve was only exposed, and the other treatments were the same as described above. The rats after surgery were placed in a metal cage. […] The weight of the filament was recorded and set to be the threshold (in g). Meanwhile, the number of foot-lifting response to the 10 stimulations of the fiber filaments of different weights was recorded, and the highest threshold was set at 26 g.
5-6 rats in each group were intragastrically administered and the pain thresholds were measured 1 hour after administration. Statistical analysis of the thresholds was performed using non-parametric Wilcoxon 2-Sample Test and Kruskal-Wallis Test, and the data was analyzed with SASS data processing software. Analgesic percent (%)=(pain threshold after drug treatment−pain threshold before drug treatment)/(maximal analgesia threshold−pain threshold before drug treatment)[…].

[3] = 20 mg/kg intragastric, time point 0
[4] = 20 mg/kg intragastric, time point 30
[5] = 20 mg/kg intragastric, time point 60
[6] = 20 mg/kg intragastric, time point 90
[7] = 20 mg/kg intragastric, time point 120
[8] = 20 mg/kg intragastric, time point 180
[9] = 40 mg/kg intragastric, time point 0
[10] = 40 mg/kg intragastric, time point 30
[11] = 40 mg/kg intragastric, time point 60
[12] = 40 mg/kg intragastric, time point 90
[13] = 40 mg/kg intragastric, time point 120
[14] = 40 mg/kg intragastric, time point 180

SMILES: COc1cc2c(cc1OC)[C@@H]1Cc3ccc(OC)c(OC)c3CN1CC2 [THP, L-tetrahydropalmatine, reference compound]
- Heart rate (heart rate in rats; [3]): 399.3 ± 32.6 BTM
- Heart rate (heart rate in rats; [4]): 377.1 ± 52.3 BTM
- Heart rate (heart rate in rats; [5]): 387.3 ± 50.5 BTM
- Heart rate (heart rate in rats; [6]): 399.8 ± 60.7 BTM
- Heart rate (heart rate in rats; [7]): 408.8 ± 55.9 BTM
- Heart rate (heart rate in rats; [8]): 429.8 ± 25.5 BTM
- Heart rate (heart rate in rats; [9]): 391.8 ± 32.9 BTM
- Heart rate (heart rate in rats; [10]): 372.1 ± 46.5 BTM
- Heart rate (heart rate in rats; [11]): 329.0 ± 63.2 BTM
- Heart rate (heart rate in rats; [12]): 340.0 ± 71.4 BTM
- Heart rate (heart rate in rats; [13]): 372.0 ± 64.6 BTM
- Heart rate (heart rate in rats; [14]): 400.0 ± 30.5 BTM
- Blood pressure (blood pressure in rats; [3]): 111.5 ± 11.5 mmHg
- Blood pressure (blood pressure in rats; [4]): 109.4 ± 20.6 mmHg
- Blood pressure (blood pressure in rats; [5]): 105.00 ± 28.21 mmHg
- Blood pressure (blood pressure in rats; [6]): 105.1 ± 20.0 mmHg
- Blood pressure (blood pressure in rats; [7]): 112.7 ± 19.3 mmHg
- Blood pressure (blood pressure in rats; [8]): 113.3 ± 18.3 mmHg
- Blood pressure (blood pressure in rats; [9]): 114.2 ± 14.6 mmHg
- Blood pressure (blood pressure in rats; [10]): 98.0 ± 30.1 mmHg
- Blood pressure (blood pressure in rats; [11]): 81.63 ± 28.8 mmHg
- Blood pressure (blood pressure in rats; [12]): 79.00 ± 28.2 mmHg
- Blood pressure (blood pressure in rats; [13]): 91.6 ± 24.7 mmHg
- Blood pressure (blood pressure in rats; [14]): 97.3 ± 14.5 mmHg
- ALT (Wistar rats; rat): 160.0 ± 70.6 U/L
- AST (Wistar rats; rat): 216.8 ± 91.6 U/L
- histopathological examination of liver (Wistar rats; result in words): vacuolar degeneration of hepatocytes
- plasma ALT and AST versus control group (Wistar rats; result in words): significant increase
- Time spent in the drug box (Mean ± S) ([1]; test dose 10 mg/kg intragastric + oxycodone 2.5 mg/kg s.c.): 253.23 ± 77.14 s
- Time spent in the drug box (Mean ± S) ([1]; test dose 20 mg/kg intragastric + oxycodone 2.5 mg/kg s.c.): 157.04 ± 60.6 s
- Reaction time for phase I (rat formalin model; 20 mg/kg intragastric): 86.8 ± 37.3 s
- Reaction time for Phase II (rat formalin model; 20 mg/kg intragastric): 185.2 ± 39.7 s
- Reaction time for phase I (rat formalin model; 40 mg/kg intragastric): 40.6 ± 28.3 s
- Reaction time for Phase II (rat formalin model; 40 mg/kg intragastric): 97.5 ± 33.6 s
- Analgesic percent ([2]; 20 mg/kg intragastric): 27.41%
- Analgesic percent ([2]; 40 mg/kg intragastric): 68.36%
